Here are results for eleven compounds from publication PMC6720883, “In Vitro Inhibitory Effects of APINACA on Human Major Cytochrome P450, UDP-Glucuronosyltransferase Enzymes, and Drug Transporters” (Molecules, 2019).

The target in series [1] is T1, CYP3A4 (Homo sapiens, UniProt P08684). To be noted: cited from earlier work.
Another series has as its target OATP1B3 (Homo sapiens, UniProt Q9NPD5).
A further series deals with T2, OATP1B1 (Homo sapiens, UniProt Q9Y6L6).
T2 construct: host or cells: HEK293 (transient overexpression)
T2 sequence (Q9Y6L6 1-691): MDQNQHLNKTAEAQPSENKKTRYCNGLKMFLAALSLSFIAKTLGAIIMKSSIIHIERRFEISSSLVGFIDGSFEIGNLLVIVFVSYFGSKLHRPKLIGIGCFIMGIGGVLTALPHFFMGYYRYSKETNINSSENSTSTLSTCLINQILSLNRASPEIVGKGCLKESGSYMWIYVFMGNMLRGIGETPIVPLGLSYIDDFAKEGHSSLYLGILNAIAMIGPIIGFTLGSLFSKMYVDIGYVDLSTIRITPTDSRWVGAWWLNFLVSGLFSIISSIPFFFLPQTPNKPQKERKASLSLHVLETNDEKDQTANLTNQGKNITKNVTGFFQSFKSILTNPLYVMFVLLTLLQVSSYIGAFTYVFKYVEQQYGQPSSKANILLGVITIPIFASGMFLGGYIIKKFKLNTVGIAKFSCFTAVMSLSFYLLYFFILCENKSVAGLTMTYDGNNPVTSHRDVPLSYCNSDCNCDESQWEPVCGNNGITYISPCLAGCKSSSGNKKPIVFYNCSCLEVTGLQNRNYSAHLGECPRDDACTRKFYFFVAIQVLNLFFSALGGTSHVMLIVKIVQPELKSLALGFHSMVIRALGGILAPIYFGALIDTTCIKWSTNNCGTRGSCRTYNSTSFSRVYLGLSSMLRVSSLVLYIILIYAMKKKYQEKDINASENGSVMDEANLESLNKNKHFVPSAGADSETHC
Briefly: Uptake of [3-H]estrone-3-sulfate in HEK293-OATP1B1 cells. The series is classed as in vitro ADME. Conditions: HEK293-OATP1B1 cells; 0.1 μM [3-H]estrone-3-sulfate; 5 min uptake. The protocol: To examine the effects of APINACA and typical inhibitors on transporter activity, the uptake of a probe substrate into HEK293 cells overexpressing the respective solute carrier transporters was measured in the presence of APINACA (final concentrations of 0–250 μM) or typical inhibitors for 5 min. The concentrations and probe substrates were selected as follows: 0.1 μM [3-H]MPP^+ (for OCT1 and OCT2), 0.1 μM [3-H]PAH (for OAT1), 0.1 μM [3-H]ES (for OAT3 and OATP1B1), and 0.1 μM [3-H]EG (for OATP1B3).
(§1) 12.5 (Systat Software, Inc.; San Jose, CA, USA). […] 1.1 (Systat Software, Inc.).

For another series, the target named is T3, UGT1A1 (Homo sapiens, UniProt P22309).
T3 construct: […]; tissue Corning Life Sciences
T3 sequence (P22309 26-533): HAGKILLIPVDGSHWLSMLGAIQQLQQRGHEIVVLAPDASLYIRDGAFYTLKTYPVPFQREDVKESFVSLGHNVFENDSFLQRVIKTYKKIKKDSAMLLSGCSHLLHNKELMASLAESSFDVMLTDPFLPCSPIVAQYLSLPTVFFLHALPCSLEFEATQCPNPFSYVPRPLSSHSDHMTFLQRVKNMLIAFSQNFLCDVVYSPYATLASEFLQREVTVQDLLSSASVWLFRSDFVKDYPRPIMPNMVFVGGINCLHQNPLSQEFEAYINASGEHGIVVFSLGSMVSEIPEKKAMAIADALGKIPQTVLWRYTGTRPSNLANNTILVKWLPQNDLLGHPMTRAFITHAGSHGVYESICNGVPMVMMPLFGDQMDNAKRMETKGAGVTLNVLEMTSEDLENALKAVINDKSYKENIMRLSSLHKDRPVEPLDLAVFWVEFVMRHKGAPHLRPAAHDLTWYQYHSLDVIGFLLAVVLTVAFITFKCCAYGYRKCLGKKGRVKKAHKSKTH
Briefly: biochemical. Type of series: in vitro ADME.
Description: as §1

For series [2], the target named is T4, UGT1A9 (Homo sapiens, UniProt O60656).
T4 sequence (O60656 26-530): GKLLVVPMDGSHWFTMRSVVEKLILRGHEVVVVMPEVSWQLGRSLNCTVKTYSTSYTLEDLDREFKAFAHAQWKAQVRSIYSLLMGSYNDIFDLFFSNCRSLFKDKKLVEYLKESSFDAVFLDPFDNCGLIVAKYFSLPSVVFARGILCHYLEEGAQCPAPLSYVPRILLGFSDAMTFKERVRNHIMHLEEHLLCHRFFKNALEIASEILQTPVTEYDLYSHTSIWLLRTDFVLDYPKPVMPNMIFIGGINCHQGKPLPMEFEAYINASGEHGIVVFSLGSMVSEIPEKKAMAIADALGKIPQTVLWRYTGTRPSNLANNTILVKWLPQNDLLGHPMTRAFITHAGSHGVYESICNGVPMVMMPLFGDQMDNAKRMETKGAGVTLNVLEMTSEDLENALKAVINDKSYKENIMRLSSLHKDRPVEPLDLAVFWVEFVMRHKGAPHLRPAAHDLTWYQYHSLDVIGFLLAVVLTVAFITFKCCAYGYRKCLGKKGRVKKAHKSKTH
Also noted: […]; tissue Corning Life Sciences; method as in PMID 23230132. Conditions: human liver microsomes; read-out: Ki for inhibition of UGT1A9-mediated ethanol glucuronidation; cited from earlier work.

The target in series [3] is T1, CYP3A4. Also noted: method as in PMID 22490230. Conditions: human liver microsomes; cited from earlier work. A general note: Liver microsomes are vesicles of endoplasmic reticulum, rich in cytochrome P450 enzymes.
Series [4] concerns the target T4, UGT1A9. Conditions: cited from earlier work.
In series [5] the target is T4, UGT1A9. Briefly: Inhibition of UGT1A9-catalyzed mycophenolic acid glucuronidation in human liver microsomes. The series is classed as in vitro ADME. Also noted: […]; tissue Corning Life Sciences. To be noted: pooled human liver microsomes; 0.2 µM mycophenolic acid; without preincubation (●); read-out: IC50 UGT1A9 mycophenolic acid glucuronidation, without preincubation.
Description: as §1

Where [6] appears, read: read-out: Ki for inhibition of UGT1A9 activities, recombinant and human liver microsomal UGT1A9.

Where two headings read alike, the source gives them in different places.

T1 sequence (P08684 2-503): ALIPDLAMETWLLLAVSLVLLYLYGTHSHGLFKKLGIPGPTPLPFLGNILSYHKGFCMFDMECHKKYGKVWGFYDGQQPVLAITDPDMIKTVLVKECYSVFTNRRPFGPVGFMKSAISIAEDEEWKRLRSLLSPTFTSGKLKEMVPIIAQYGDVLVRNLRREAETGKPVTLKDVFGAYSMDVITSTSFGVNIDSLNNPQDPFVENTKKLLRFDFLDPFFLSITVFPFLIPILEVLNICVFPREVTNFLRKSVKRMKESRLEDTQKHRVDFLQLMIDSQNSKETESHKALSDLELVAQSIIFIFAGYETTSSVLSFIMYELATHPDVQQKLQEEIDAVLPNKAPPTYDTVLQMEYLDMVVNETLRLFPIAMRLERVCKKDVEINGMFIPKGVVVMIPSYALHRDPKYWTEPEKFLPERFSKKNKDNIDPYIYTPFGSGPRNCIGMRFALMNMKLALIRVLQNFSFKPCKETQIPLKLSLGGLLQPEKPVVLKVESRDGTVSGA
OATP1B3, sequence (Q9NPD5 whole entry): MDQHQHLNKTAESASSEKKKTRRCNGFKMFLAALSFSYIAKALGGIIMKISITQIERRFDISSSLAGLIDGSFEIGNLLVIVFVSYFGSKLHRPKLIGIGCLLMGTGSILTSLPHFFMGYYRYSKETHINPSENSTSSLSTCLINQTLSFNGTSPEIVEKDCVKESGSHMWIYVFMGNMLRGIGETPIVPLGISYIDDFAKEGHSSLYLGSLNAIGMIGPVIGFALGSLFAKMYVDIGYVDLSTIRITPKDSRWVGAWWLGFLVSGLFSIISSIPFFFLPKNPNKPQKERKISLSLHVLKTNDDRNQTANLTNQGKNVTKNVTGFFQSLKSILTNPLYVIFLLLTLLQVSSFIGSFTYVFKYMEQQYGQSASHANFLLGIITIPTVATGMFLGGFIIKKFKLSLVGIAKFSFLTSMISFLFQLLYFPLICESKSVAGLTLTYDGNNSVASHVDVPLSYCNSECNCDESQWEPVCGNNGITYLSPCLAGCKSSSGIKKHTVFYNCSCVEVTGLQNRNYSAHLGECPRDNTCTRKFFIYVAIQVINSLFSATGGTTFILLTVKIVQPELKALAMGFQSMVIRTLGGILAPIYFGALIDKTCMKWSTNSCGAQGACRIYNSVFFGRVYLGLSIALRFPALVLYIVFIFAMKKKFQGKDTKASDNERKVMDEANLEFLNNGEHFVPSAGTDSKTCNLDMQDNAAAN

`O=C(c1cccc2ccccc12)c1cn(CCCCCF)c2ccccc12` [AM-2201]: the Ki on CYP3A4 [1] (competitive inhibition, read-out: Ki for competitive inhibition of CYP3A4-catalyzed midazolam 1′-hydroxylation) is 4 µM.

As for `CCc1ccc(C(=O)c2cn(CCCCCF)c3ccccc23)c2ccccc12` [EAM-2201], the “kinact for CYP3A4-catalyzed midazolam 1′-hydroxylation” value at CYP3A4 [1] (human liver microsomes) was 0.0250 min⁻¹.

Turning to `Cc1ccc(C(=O)c2cn(CCCCCF)c3ccccc23)c2ccccc12` [MAM-2201], on CYP3A4 [1] (noncompetitive inhibition, read-out: Ki for noncompetitive inhibition of CYP3A4-catalyzed midazolam 1′-hydroxylation), the Ki is 5.4 µM.

As to `CO[C@H]1/C=C/O[C@@]2(C)Oc3c(C)c(O)c4c(O)c(c(/C=N/N5CCN(C)CC5)c(O)c4c3C2=O)NC(=O)/C(C)=C\C=C\[C@H](C)[C@H](O)[C@@H](C)[C@@H](O)[C@@H](C)[C@H](OC(C)=O)[C@@H]1C` [Rifampin, reference compound], the IC50 against OATP1B3 worked out at 0.99 µM; on OATP1B1, 22.8 µM.

The compound `COC(=O)N[C@H](C(=O)N[C@@H](Cc1ccccc1)[C@@H](O)CN(Cc1ccc(-c2ccccn2)cc1)NC(=O)[C@@H](NC(=O)OC)C(C)(C)C)C(C)(C)C` [atazanavir, reference compound] showed an IC50 against UGT1A1 of 0.7 µM.

On to `C=C(C)[C@@H]1CCC(C)=C[C@H]1c1c(O)cc(CCCCC)cc1O` [cannabidiol], for which the Ki at UGT1A9 [2] is 9.9 µM.

As for `CC[C@H]1OC(=O)[C@H](C)[C@@H](O[C@H]2C[C@@](C)(OC)[C@@H](O)[C@H](C)O2)[C@H](C)[C@@H](O[C@@H]2O[C@H](C)C[C@H](N(C)C)[C@H]2O)[C@](C)(OC)C[C@@H](C)C(=O)[C@H](C)[C@@H](O)[C@]1(C)O` [clarithromycin], at CYP3A4 [3], the “inactivation efficiency (kinact/Ki) for time-dependent inhibition of CYP3A4” value is 46.7 M⁻¹ s⁻¹.

Turning to `CCOc1ccc(Cc2cc([C@@H]3O[C@H](CO)[C@@H](O)[C@H](O)[C@H]3O)ccc2Cl)cc1` [dapagliflozin], the Ki at UGT1A9 [4] (setting [6]) is 11 to 15 µM.

Turning to `C=CCc1ccc(O)c(-c2cc(CC=C)ccc2O)c1` [magnolol, reference compound], on UGT1A9 [5], the IC50 amounted to 9.7 µM.

Take `CNC(=O)c1cc(Oc2ccc(NC(=O)Nc3ccc(Cl)c(C(F)(F)F)c3)c(F)c2)ccn1` [regorafenib]: on UGT1A9 [4], the inhibitory constant (Ki) is 0.7 µM.

For `CNC(=O)c1cc(Oc2ccc(NC(=O)Nc3ccc(Cl)c(C(F)(F)F)c3)cc2)ccn1` [sorafenib], on UGT1A9 [4] (setting [6]), the Ki was 0.7 µM.

The Ki is a dissociation constant, usually derived from enzyme kinetics or from competition with a known ligand. As a reminder, the IC50 is the concentration at which inhibition is half-maximal.
